Experimental findings from patent US20240368506A1, “Manufacturing a Non-Alcoholic Distilled Spirit and Functional Ingredient” (priority 2022, published 2024) are described below.

In one test the target is T1, MAO A (Homo sapiens, UniProt P21397).
T1 sequence (P21397 1-527): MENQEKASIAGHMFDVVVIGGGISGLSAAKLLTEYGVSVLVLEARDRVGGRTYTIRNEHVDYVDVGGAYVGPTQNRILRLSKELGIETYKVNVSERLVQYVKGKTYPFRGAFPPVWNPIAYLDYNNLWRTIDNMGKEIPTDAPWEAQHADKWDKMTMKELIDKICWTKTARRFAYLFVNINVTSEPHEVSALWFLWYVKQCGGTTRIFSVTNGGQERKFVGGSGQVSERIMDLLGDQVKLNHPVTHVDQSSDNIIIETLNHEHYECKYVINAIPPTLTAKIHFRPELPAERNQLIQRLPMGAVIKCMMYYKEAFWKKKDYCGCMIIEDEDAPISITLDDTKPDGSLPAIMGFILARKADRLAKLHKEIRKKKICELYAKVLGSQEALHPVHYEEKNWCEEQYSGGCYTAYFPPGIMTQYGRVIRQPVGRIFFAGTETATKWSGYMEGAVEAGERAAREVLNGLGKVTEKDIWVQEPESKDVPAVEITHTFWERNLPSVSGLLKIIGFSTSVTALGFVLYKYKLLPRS
Nature of the test: MAO A inhibitory activity of Don Julio Añejo or 40% ethanol spiked with terpenes. The conditions noted are these: terpene at 0.5% (v/v) in tequila (40% ABV) and in 40% ethanol. It is filed as biochemical. As for the experimental part: (§1) The effect terpenes on MAOI activity in tequila was evaluated in the experiment from Table 3. Terpenes were added to 40% ethanol and tequila (40% ABV) at 0.5%. (v/v) and assayed for MAO inhibitory activity.

The target in a further test is T2, MAO B (Homo sapiens, UniProt P27338).
T2 sequence (P27338 1-520): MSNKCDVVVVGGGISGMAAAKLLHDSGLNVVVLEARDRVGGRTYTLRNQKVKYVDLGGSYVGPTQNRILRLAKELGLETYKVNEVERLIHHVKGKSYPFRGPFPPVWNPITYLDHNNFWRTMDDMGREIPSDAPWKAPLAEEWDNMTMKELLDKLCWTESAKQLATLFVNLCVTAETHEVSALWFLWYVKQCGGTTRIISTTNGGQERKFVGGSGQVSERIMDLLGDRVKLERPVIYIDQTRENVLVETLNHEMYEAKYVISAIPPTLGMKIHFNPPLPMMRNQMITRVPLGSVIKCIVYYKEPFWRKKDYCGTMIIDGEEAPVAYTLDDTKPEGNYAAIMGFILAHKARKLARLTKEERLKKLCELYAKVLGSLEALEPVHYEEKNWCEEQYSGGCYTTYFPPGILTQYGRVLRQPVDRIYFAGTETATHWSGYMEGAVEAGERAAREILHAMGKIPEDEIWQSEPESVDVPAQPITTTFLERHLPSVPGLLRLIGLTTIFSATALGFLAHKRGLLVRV
Nature of the test: MAO B inhibitory activity of Don Julio Añejo or 40% ethanol spiked with terpenes. The conditions noted are these: terpene at 0.5% (v/v) in tequila (40% ABV) and in 40% ethanol. It is filed as biochemical. The protocol:
as §1

Turning to `C=C(C)[C@@H]1CCC2=CCC[C@@H](C)[C@]2(C)C1` [valencene], on MAO A, the “Δ % Inhibition MAO A (DJA + terpene) − (ETOH + terpene)” value amounted to 9%. Moreover, at MAO B, the “Δ % Inhibition MAO B (DJA + terpene) − (ETOH + terpene)” value turned out to be 20%.
On the same counts, the results for Geramol are 4% and 9%.
